These results are taken from patent publication US4252956A, “Derivatives of 1,4-dihydropyridine-3-carbothiol acids” (priority 1979, dated 1981).

Where two headings read alike, the source gives them in different places.

For one series, the system named is arterial pressure. In words: hypotensive effect (arterial pressure, heart activity). Format: in vivo. The note with it: for ED30: read-out: ED30 of the hypotensive effect.
A further series relates to white mice. The series is described as follows: in vivo.
Another series concerns coronary blood flow. The series is described as follows: recording the volume rate of coronary blood flow in experiments on narcotized cats (coronarodilating activity). Format: in vivo. As to conditions: for ED (30-50%): Felis catus, iv, read-out: Dose increasing the coronary blood flow by 30-50%; for Duration of the effect: Table, at the dose increasing the coronary blood flow; for coronarodilating activity: narcotized cats.

The subject of series [1] is coronarodilating activity. The note with it: in vivo; cited from earlier work.
The nature of another series: in vivo. The note with it: mouse, in vivo, ip; white mice, intraperitoneal; read-out: LD50 for white mice upon intraperitoneal administration.
The mark [2] stands for this setting: increase of coronary blood flow by 30-50%.

Experimental for arterial pressure: (§1) Tests of the compounds according to the present invention were performed in comparison with the prior art coronarodilating agents; carbocromene and ditrimine and with the prior art spasmolytic preparation-papaverine having a myotropic effect.
Experimental for coronary blood flow: as §1

On to `COc1cc(C(=O)OCCCN(C)CCN(C)CCCOC(=O)c2cc(OC)c(OC)c(OC)c2)cc(OC)c1OC` [Ditrimine, reference compound], for which, in the series with arterial pressure (in vivo), the “ED30 of the hypotensive effect” value came to 1.0 mg/kg. In the series on white mice, the “LD50 for white mice upon intraperitoneal administration” value is 180 (149-218) mg/kg. In the series with coronary blood flow (setting [2]), the “Dose increasing the coronary blood flow by 30-50%” value came out at 0.5 mg/kg.
Consider `CCOC(=O)C1=C(C)NC(C)=C(C(=O)SCc2ccccc2)C1c1ccccc1` (centres unmarked) [III, 3-S-benzyl-5-ethyl ester of 4-phenyl-2,6-dimethyl-1,4-dihydropyridine-3-carbothiol-5-carboxylic acid], for which, in the series on arterial pressure, the ED30 was determined as 1.65 mg/kg. Besides, the ED (30-50%) with coronary blood flow (setting [2]) worked out at 0.5 mg/kg. Further, in the series on coronary blood flow, the “Duration of the effect” value is reported as 150 min and the “coronarodilating activity” value was “most active”.
Turning to `CCSC(=O)C1=C(C)NC2=C(C(=O)c3ccccc32)C1c1ccccc1` (centres unmarked) [V, 2-methyl-3-ethylthiocarbonyl-4-phenyl-5-oxo-1,4-dihydroindeno-(1,2-b)-pyridine], the ED30 in the series on arterial pressure was found to be 3 mg/kg. Moreover, in the series with coronary blood flow (setting [2]), the ED (30-50%) worked out at 3 mg/kg.
Regarding `CCSC(=O)C1=C(C)NC2=C(C(=O)c3ccccc32)C1c1ccccc1O` (centres unmarked) [VIII, 2-methyl-3-ethylthiocarbonyl-4-o-hydroxyphenyl-5-oxo-1,4-dihydroindeno-(1,2-b)pyridine], the ED30 with arterial pressure stood at 5 mg/kg. Moreover, the ED (30-50%) in the series on coronary blood flow (setting [2]) came to 3 mg/kg.
In the case of `CCOC(=O)COc1ccc2c(C)c(CCN(CC)CC)c(=O)oc2c1` [Carbocromene, reference compound], in the series on coronary blood flow (setting [2]), the ED (30-50%) stood at 0.5 mg/kg.
As to `CC1=C(C(=O)SCc2ccccc2)C(c2ccccc2)C2=C(N1)c1ccccc1C2=O` (centres unmarked) [VI, 2-methyl-3-benzylthiocarbonyl-4-phenyl-5-oxo-1,4-dihydroindeno-(1,2-b)-pyridine], in the series with arterial pressure, the ED30 came out at 1 mg/kg. For the same molecule, in the series with coronary blood flow, the ED (30-50%) is 0.3 mg/kg and the “coronarodilating activity” value was “most active”.
For the molecule `CCSC(=O)C1=C(C)NC(C)=C(C(=O)SCC)C1c1cccnc1` [II, Di-S-ethyl ester of 2,6-dimethyl-4-m-pyridyl-1,4-dihydropyridine-3,5-dicarbothiol acid], the ED30 in the series on arterial pressure is 0.56 mg/kg. Moreover, the ED (30-50%) with coronary blood flow (setting [2]) worked out at 0.5 mg/kg. Further, in the series with coronary blood flow, the “Duration of the effect” value is listed as more than 120 min and the “coronarodilating activity” value was “most active”.
With `CC1=C(C(=O)SCc2ccccc2)C(c2ccccc2O)C2=C(N1)c1ccccc1C2=O` (centres unmarked) [VII, 2-methyl-3-benzylthiocarbonyl-4-o-hydroxyphenyl-5-oxo-1,4-dihydroindeno-(1,2-b)-pyridine], the ED30 with arterial pressure came out at 1 mg/kg. Moreover, in the series on coronary blood flow, the ED (30-50%) worked out at 0.5 mg/kg and the “coronarodilating activity” value is “most active”.
Regarding `CCOC(=O)C1=C(C)NC(C)=C(C(=O)SCc2ccccc2)C1C` (centres unmarked) [IV, 3-S-benzyl-5-ethyl ester of 2,4,6-trimethyl-1,4-dihydropyridine-3-carbothiol-5-carboxylic acid], the ED30 in the series with arterial pressure is 3.45 mg/kg. Further, the ED (30-50%) in the series on coronary blood flow (setting [2]) lay within 2 to 4 mg/kg. Also, the “Duration of the effect” value in the series on coronary blood flow lay within 30 to 60 min.
For the molecule `CCSC(=O)C1=C(C)NC2=C(C(=O)c3ccccc32)C1c1ccc([N+](=O)[O-])cc1` (centres unmarked) [IX, 2-methyl-3-ethyl-thiocarbonyl-4-p-nitrophenyl-5-oxo-1,4-dihydroindeno-(1,2-b)-pyridine], the ED30 with arterial pressure was 1 mg/kg. Besides, the ED (30-50%) in the series with coronary blood flow (setting [2]) was determined as 3 mg/kg.
As for `COC(=O)C1=C(C)NC(C)=C(C(=O)OC)C1c1ccccc1[N+](=O)[O-]` [2,6-dimethyl-3,5-dicarbometh-oxy-4-o-nitrophenyl-1,4-dihydropyridine], the “coronarodilating activity (prior art)” value in series [1] is given as “pronounced coronarodilating activity”.
As to `CCSC(=O)C1=C(C)NC(C)=C(C(=O)SCC)C1` [I, Di-S-ethyl ester of 2,6-dimethyl-1,4-dihydropyridine-3,5-dicarbothiol acid], the ED30 in the series with arterial pressure was 1.8 mg/kg. For the same molecule, in “in vivo”, the LD50 was more than 4000 mg/kg. Further, the ED (30-50%) in the series with coronary blood flow (setting [2]) was found to be 1 mg/kg. Moreover, in the series with coronary blood flow, the “Duration of the effect” value was in the range of 60 to 90 min.
Turning to `COc1ccc(Cc2nccc3cc(OC)c(OC)cc23)cc1OC` [Papaverine, reference compound], the ED30 in the series with arterial pressure was 0.27 mg/kg. In the series “in vivo”, the LD50 is 91 mg/kg. In addition, in the series with coronary blood flow, the ED (30-50%) stood at 1 mg/kg and the “Duration of the effect” value was 10 to 20 min.
Take `CCSC(=O)C1=C(C)NC2=C(C(=O)c3ccccc32)C1c1ccccc1[N+](=O)[O-]` (centres unmarked) [X, 2-methyl-3-ethylthiocarbonyl-4-o-nitrophenyl-5-oxo-1,4-dihydroindeno-(1,2-b)-pyridine]: in “in vivo”, the LD50 is more than 2000 mg/kg. The ED (30-50%) with coronary blood flow (setting [2]) is 3 mg/kg.
